The subject of one series is Escherichia coli. Kind of series: Antibacterial activity by agar diffusion method. Format: cell-based. Further details: key: c: Inhibition of growth not observed. The conditions noted are these: 10 mg sample. Here is the method:
Antibacterial activity of polymyxin B-loaded PBCA nanoparticles was measured indirectly by the agar diffusion method. 30 ml of nutrient agar was added into each of four culture plates (90 mm diameter, 15 mm high). After solidifying, a cylindrical hole (13 mm in diameter) was made in the center of the plate and the contents were removed. 10 mg of polymyxin B, PBCA nanoparticles, and two polymyxin B-loaded PBCA nanoparticles (Poly BIPBCA-1 and 2) were added into a hole of each plate, respectively and a few drops of molten agar were added to fix the samples. The plate were inoculated with Escherichia coli and incubated at 37° C. for 24 hours and the zone of inhibition was determined (FIGS. 13A-13D).
To evaluate the duration of antibacterial activity of each sample, the content of each hole was removed after 24 hours of incubation and transferred to a hole of a freshly prepared plate, incubated again for 24 hours and the zone of inhibition measured. This procedure was continuously repeated until the inhibition of growth was no longer observed.

A short description of series [1]: In vitro accelerated degradation study of cured adhesive films. It is filed as physicochemical. The conditions noted are these: thin films in 0.05N NaOH, 37° C., 3, 7, 14 and 21 days; FIG. 1. Here is the method:
In vitro accelerated degradation studies have been performed to evaluate the degradation rate of various cyanoacrylate adhesives formulated with PEG and without PEG. 20 μl of cyanoacrylate (CA) derivatives and CA derivatives/PEG (MW=600) formulations were spread as a thin layer on the glass microscope slides and allowed to cure overnight at room temperature. […] The films were collected at 3, 7, 14, and 21 days and washed with distilled water two times. The washed films were freeze-dried and weighed (W1) (n=3). […] 2. Tissue Bond Strength Study

The subject of series [2] is hind limb muscles of adult Sprague-Dawley rats. Kind of series: In vivo biocompatibility and degradation, macroscopic and IHC, incision closure. The source says:
Small surgical incisions (0.2 cm in depth, 1 cm in length) were made in both hind limb muscles of adult Sprague-Dawley rats (n=4). One incision was closed by 1 drop of various cyanoacrylate formulations dispensed through a surgical syringe needle (25 G) and the other was closed by absorbable suture (VICRYL, Ethicon) with and without injection of equivalent volumes of PEG included in cyanoacrylate formulations as controls. In order to ensure proper identification of the injury sites, a single non-absorb-able suture was placed adjacent to each repaired incision site.
At 7 days, 4 weeks, and 12 weeks post-surgery, tissue explants containing the repaired incision sites and surrounding muscle tissue were retrieved. The explants were photographed to document the macroscopic tissue response to the various cyanoacrylate formulations and suture controls (FIGS. 3A-3H (7 days), 4A-4H (4 weeks), and 5A-5H (12 weeks)). Identification of specific cells types associated with wound healing and inflammation was performed by histological sectioning and immunohistochemical (IHC) staining. Tissue explants were embedded in Optimal cutting temperature (OCT) compound and sectioned perpendicular to the surface of the repaired muscle tissue. Sections ([…] thick) were transferred to glass microscope slides, fixed with methanol, permeabilized with 0.025% Triton in PBS solution, and stained with primary antibodies directed against vimentin (fibroblasts) and rat macrophages, and Alexa-594 conjugated secondary antibodies. DAPI mounting media was used to counterstain all cellular nuclei. Samples were imaged by fluorescence microscopy (FIGS. 6A-6P, 7A-7P, 8A-8P). Specific cell types are identified in red, sutures and various cyanoacrylate adhesives are shown in green, and cellular nuclei are shown in blue. […]

For another series, the system named is Human dermal fibroblasts. Kind of series: Cell adhesion to polymerized cyanoacrylates (live/dead staining). Format: cell-based. The settings on record: 48 hours culture; FIG. 10. Here is the method:
2 μl aliquots of various cyanoacrylate formulations with and without PEG were applied to thin collagen films in 24 well plates and allowed to cure overnight at room temperature. Human dermal fibroblasts were seeded on the collagen film/polymerized adhesive surfaces at 8×10^4 cells/well and cultured for 48 hours. The cells were stained with fluorescein diacetate and propidium iodide to visualize live (green) and dead (red) cells respectively. FIGS. 10A (OCA+MCA), 10B (OCA+MCA/PEG), 10E (MCA), and 10F (MCA/PEG) are phase contrast images (black and white) showing the interface between the cyanoacrylate adhesives and the surrounding collagen films and corresponding fluorescent images FIGS. 10C (OCA+MCA), 10D (OCA+MCA/PEG), 10G (MCA), and 10H (MCA/PEG) showing the location of adherent cells.

Series [3] concerns Human dermal fibroblast (HDF) cells. Kind of series: In vitro cytotoxicity of adhesive-conditioned media (MTT assay). Format: cell-based. The conditions noted are these: ACM collected at 2 days; HDF cultured 2 days; FIG. 9. As for the experimental part:
2 μl of various CA formulations were applied on thin collagen films in 12 well plates and allowed to polymerize completely overnight at room temperature. One ml of […] (DMEM) including 10% Serum and 1% Penicillin/Streptomycin was added into each well and incubated at 37° C. in a humidified CO2 incubator to simulate adhesive degradation. Media samples were collected at 2, 7, and 14 days and these adhesive-conditioned media (ACM) were stored at −20° C. until use. Human dermal fibroblast (HDF) cells were seeded in new 12-well culture plates at a density of 8×10^4 cells/well and cultured for 24 hours to allow cell attachment. The media was replaced with the stored ACM and cultured for 2 days at 37° C. to evaluate the in vitro cytotoxicity of the various CA derivatives. Cell cytotoxicity by the degraded CA adhesives in ACM was evaluated by MTT assay. The principle of this assay is the addition of a dye which is degraded by enzymes present in living cells, resulting in the formation of a colored product. The product concentration, which is generally directly proportional to the number of viable cells, is assayed by spectrophotometry.
For orientation: Tetrazolium dyes change colour on reduction, which living cells bring about.

Where [4] appears, read: 4 weeks post-surgery, one value per rat.
[5] abbreviates: 7 days post-surgery, one value per rat.
[6] abbreviates: 7 days post-surgery, one value per rat (Rat No. 1-4), star grades not defined.
[7] abbreviates: Table IV, 4 weeks post-surgery (12 weeks), one value per rat.

In the case of Polymyxin B, the “Inhibition zone: Diameter (mm)” value in the series with Escherichia coli (day 1, includes original 13 mm sample size) is 36 mm; in the series with Escherichia coli (day 2 (sample moved to fresh plate every 24 hours), includes 13 mm sample size), 38.3 mm; in the series with Escherichia coli (day 3, includes 13 mm sample size), 28 mm; in the series with Escherichia coli (day 4, includes 13 mm sample size) it was 25.1 mm; in the series on Escherichia coli (day 5, includes 13 mm sample size) it was 22 mm; in the series on Escherichia coli (day 6), “c”.
As for methoxyisopropylcyanoacrylate [MCA], in series [1], the “% degradation in vitro” value was “significantly increased degradation”. Besides, the Degree of inflammation entry in series [2] (setting [4]), in series [2] (setting [6]) and in series [2] (setting [7]) was “no” throughout. Moreover, the Vessel formation entry in series [2] (setting [4]), in series [2] (setting [5]) and in series [2] (setting [7]) was “no” in each case. The No. of macrophages in series [2] (Table IV, 4 weeks post-surgery (12 weeks), one value per rat, IHC) amounted to 0. The “fibroblast adhesion to polymerized adhesive surface” value with Human dermal fibroblasts is reported as “readily adhered in large numbers”.
In the case of `C=C(C#N)C(=O)OCCCCCCCC` [OCA, octylcyanoacrylate], the Vessel formation result in series [2] (setting [4]), in series [2] (setting [5]) and in series [2] (setting [7]) was “no” in each case. Moreover, the “macroscopic inflammation and swelling of tissue explants” value in series [2] (7 days post-surgery) was “mild inflammation and swelling”. Moreover, the Degree of inflammation result in series [2] (setting [6]) and in series [2] (setting [7]) was “no” each time. Further, the “cytotoxicity of adhesive-conditioned media (% cell viability)” value in series [3] is “not cytotoxic except for the ACM from OCA”.
